Laboratory results: PMC7555312, “Functional Characterization of Temporin-SHe, a New Broad-Spectrum Antibacterial and Leishmanicidal Temporin-SH Paralog from the Sahara Frog (Pelophylax saharicus)” (International Journal of Molecular Sciences, 2020)
Where no end group is shown, it is not given here.

Assays:
[1] = tested on: E. coli ATCC 35218; type: cell-based, Escherichia coli
Method: (§2) Antimicrobial activity was assessed with a liquid growth inhibition assay performed according to a previously described protocol [14] using the Clinical and Laboratory Standards Institute (CLSI) guidelines. Briefly, in 96-well microtitration plates, mid-log-phase bacteria diluted to 10^6 CFU/mL in Mueller–Hinton (MH) broth were added to different concentrations of synthetic temporin-SHe (1–200 µM, final concentrations) and incubated at 37 °C for 18–20 h, under shaking (150 rpm). For E. faecalis, L. ivanovii and yeasts/fungi, 10^6 CFU/mL suspensions were prepared in LB broth, brain heart infusion (BHI) medium and Yeast Peptone Dextrose (YPD) medium, respectively, and incubation was performed at 30 °C for yeasts/fungi. […] MIC values represent the average of three independent experiments, each performed in triplicate with negative (no peptide) and positive (formaldehyde 0.7%) controls.

[2] = tested on: K. pneumoniae ATCC 13883; type: cell-based, Klebsiella pneumoniae
Method: as §2

[3] = tested on: S. aureus ST1065; type: cell-based, Staphylococcus aureus
[4] = tested on: B. megaterium; type: cell-based, Bacillus megaterium
Method: as §2

[5] = tested on: L. braziliensis promastigotes (strain MHOM/BR/75/M2904); type: cell-based, Leishmania braziliensis; conditions: 72 h, 26 °C
Method: (§1) Antileishmanial activity of temporin-SHe was analyzed by a luminescence-based growth inhibition method using Leishmania promastigotes transfected with the vector pGMαNEOαLUC containing the gene LUC that codes for the firefly luciferase, cultured at 26 °C in SDM-79 medium supplemented with 10% fetal calf serum (Gibco), as previously described. Mid-log-phase promastigotes (1.25 × 10^6 cells/mL) were added in 96-well plates containing different concentrations of synthetic temporin-SHe (3.125–50 µM, final concentrations), and incubated 72 h at 26 °C. […] IC50 was determined with GraphPad Prism® 6.0 software (GraphPad Software, La Jolla, CA, USA) using a sigmoidal dose–response curve fitting equation.

[6] = tested on: L. major promastigotes (strain MHOM/SU/73/5-ASKH); type: cell-based, Leishmania major; conditions: 72 h, 26 °C
Method: as §1

[7] = tested on: human THP-1 monocytes; assay: Cytotoxicity, MTT assay; conditions: THP-1, 72 h, 37 °C, calculated mean from dose–response curves
Method: Hemolytic activity of temporin-SHe was determined against human red blood cells (RBCs), as described in [13]. After incubating the peptide (1–200 µM, final concentrations) with RBCs (2 × 10^7 cells) in 100 µL PBS for 1 h at 37 °C, centrifugation was completed (12,000× g, 15 s) and the absorbance of the supernatant was measured at 450 nm. RBCs suspended in PBS or 0.1% (v/v) Triton X-100 yielded an absorbance associated with 0% and 100% hemolysis, respectively. The percentage of hemolysis was calculated as follow: Hemolysis (%) = [A450 (RBCs with peptide)–A450 (RBCs in PBS)]/[A450 (RBCs with Triton X-100)–A450 (RBCs in PBS)]. Cytotoxicity of temporin-SHe was also assessed on human leukemia monocyte cell line THP-1. Briefly, monocytes (6.25 × 10^5 cells/mL) were incubated with different peptide concentrations (3–50 µM, final concentrations) for 72 h at 37 °C, then cell viability was determined by the MTT assay according to a previously described protocol. Results were expressed as the mean of two independent experiments performed in triplicate.

[8] = tested on: E. coli ML-35p; assay: Membrane permeabilization assay (ONPG hydrolysis); type: cell-based, Escherichia coli; conditions: increasing peptide concentrations, 2.5 mM ONPG in PBS, 37 °C
Method: The ability of temporin-SHe to permeabilize bacterial cytoplasmic membrane was determined using the Gram-negative strain E. coli ML-35p and the Gram-positive strain S. aureus ST1065, as described. Briefly, after incubation of bacteria (37 °C) in 96-well plates with PBS containing 2.5 mM o-nitrophenyl-β-D-galactopyranoside (ONPG) and different concentrations of temporin-SHe, the production of o-nitrophenol (ONP) resulting from hydrolysis of ONPG by intracytoplasmic β-galactosidase was monitored at 405 nm according to the time (Fluostar Galaxy plate reader, BMG Labtech, Champigny-sur-Marne, France). Wells containing bacteria and ONPG, with no peptide, were used as negative control. Two independent experiments were performed in triplicate. Results are from a representative experiment and were expressed as the mean ± S.D.

[9] = tested on: E. coli ATCC 25922; assay: Time-killing assay; type: cell-based, Escherichia coli; conditions: two-fold MIC (50 µM temporin-SHe), 10^6 cfu/mL in PBS, plate counting
Method: Aliquots were withdrawn at different times and spread onto LB agar plates for cell counting after overnight incubation at 37 °C. Controls corresponding to the bacterial suspensions without peptide were also run. Two independent experiments were performed in triplicate. Results were expressed as the mean ± S.D. of a representative experiment.

[10] = tested on: L. ivanovii (Li4pVS2); conditions: liquid growth inhibition (CLSI), 10^6 CFU/mL in brain heart infusion (BHI) medium, 37 °C, 18–20 h, OD 630 nm; mean of three independent experiments in triplicate
Method: Antibacterial activity of temporin-SHe was evaluated against Gram-positive bacteria including S. aureus strains (ATCC 25923, ST1065), antibiotic-resistant S. aureus strains (ATCC 43300, ATCC BAA-44), E. faecalis (ATCC 29212), B. megaterium, and L. ivanovii (Li4pVS2), and Gram-negative bacteria including E. coli strains (ATCC 25922, ATCC 35218, ML-35p), S. enterica (serotype Enteritidis), P. aeruginosa (ATCC 27853), A. baumannii (ATCC 19606) and K. pneumoniae (ATCC 13883). Antifungal activity was evaluated against C. albicans (ATCC 90028), C. parapsilosis (ATCC 22019) and S. cerevisiae. ATCC strains were purchased from American-Type Culture Collection (ATCC, Virginia, VA, USA). Antiparasitic activity was determined against promastigotes of several species of Leishmania responsible for visceral, cutaneous and mucocutaneous leishmaniases: L. infantum (strain MHOM/MA/67/ITMAP-263), L. major (strain MHOM/SU/73/5-ASKH), and L. braziliensis (strain MHOM/BR/75/M2904), respectively. Cytotoxicity was assessed against human red blood cells and THP-1 monocytes. Peripheral blood was obtained from healthy adult donors (Établissement Français du Sang, Paris, France). All donors signed informed consent allowing the use of their blood for research purposes.
Antimicrobial activity was assessed with a liquid growth inhibition assay performed according to a previously described protocol using the Clinical and Laboratory Standards Institute (CLSI) guidelines. Briefly, in 96-well microtitration plates, mid-log-phase bacteria diluted to 10^6 CFU/mL in Mueller–Hinton (MH) broth were added to different concentrations of synthetic temporin-SHe (1–200 µM, final concentrations) and incubated at 37 °C for 18–20 h, under shaking (150 rpm). For E. faecalis, L. ivanovii and yeasts/fungi, 10^6 CFU/mL suspensions were prepared in LB broth, brain heart infusion (BHI) medium and Yeast Peptone Dextrose (YPD) medium, respectively, and incubation was performed at 30 °C for yeasts/fungi. […] MIC values represent the average of three independent experiments, each performed in triplicate with negative (no peptide) and positive (formaldehyde 0.7%) controls.

[11] = tested on: E. coli strains; type: cell-based, Escherichia coli
Method: as §2

[12] = luciferase-expressing promastigotes 1.25 × 10^6 cells/mL, Steady-Glo, mean of three independent experiments in triplicate
[13] = peptide 12.5 µM, promastigotes, mean of three independent assays in triplicates

Substance: FLPALAGIAGLLGKIF-NH2 [Temporin-SHe]
- MIC [1]: 50 µM
- MIC [2]: 100 µM
- MIC [3]: 3.12 µM
- MIC [4]: 1.56 µM
- IC50 [5, 12]: 10.5 µM
- Leishmania growth inhibition (L. braziliensis) [5, 13]: 87%
- IC50 [6, 12]: 11.6 µM
- Leishmania growth inhibition (L. major) [6, 13]: 85%
- LC50 (lethal concentration 50) [7]: 11.4 µM
- cytoplasmic membrane permeabilization (ONP production, A405) [8]: time- and concentration-dependent manner
- time to total killing [9]: 90 min
- MIC [10]: 5 µM
- MIC range [11]: 25 to 50 µM
